Reference: PubChem BioAssay (NCI)
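Where inhibition never reached the appropriate level, the endpoint shown equals the highest concentration tested. Otherwise, values were interpolated linearly from a five-concentration, 48-hour dose response in 96-well plates. Here, GI50 denotes the concentration required for 50% inhibition of growth. TGI is the concentration that stops growth completely.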

Experiments:
Test in all cases: growth of human tumour cells (NCI), 48 h
[1] = system: COLO 205 colon
[2] = system: NCI/ADR-RES ovarian
[3] = system: NCI-H522 lung
[4] = system: 786-0 renal
[5] = system: U251 CNS
[6] = system: KM12 colon
[7] = system: SK-MEL-28 melanoma
[8] = system: UO-31 renal
[9] = system: DU-145 prostate
[10] = system: MOLT-4 leukemia
[11] = system: HOP-92 NSCLC
[12] = system: MDA-MB-231 breast
[13] = system: T-47D breast
[14] = system: NCI-H23 lung
[15] = system: IGROV1 ovarian
[16] = system: TK-10 renal
[17] = system: OVCAR-5 ovarian
[18] = system: SF-539 CNS
[19] = system: CCRF-CEM leukemia
[20] = system: CAKI-1 renal
[21] = system: OVCAR-4 ovarian
[22] = system: HT29 colon
[23] = system: SK-MEL-2 melanoma
[24] = system: HS 578T breast
[25] = system: SN12C renal
[26] = system: OVCAR-3 ovarian
[27] = system: EKVX NSCLC
[28] = system: A549 NSCLC
[29] = system: HCT-15 colon
[30] = system: OVCAR-8 ovarian
[31] = system: BT-549 breast
[32] = system: RPMI-8226 leukemia
[33] = system: PC-3 prostate
[34] = system: NCI-H460 lung
[35] = system: HCT-116 colon
[36] = system: SNB-19 CNS
[37] = system: A498 renal
[38] = system: M14 melanoma
[39] = system: HOP-62 NSCLC
[40] = system: HL-60(TB) leukemia
[41] = system: NCI-H226 lung
[42] = system: SW-620 colon
[43] = system: SF-295 CNS
[44] = system: UACC-62 melanoma
[45] = system: HCC-2998 colon
[46] = system: LOX IMVI melanoma
[47] = system: SF-268 CNS
[48] = system: RXF 393 renal
[49] = system: SNB-75 CNS
[50] = system: ACHN renal
[51] = system: K-562 leukemia
[52] = system: UACC-257 melanoma
[53] = system: MDA-MB-435
[54] = system: SR leukemia
[55] = system: MCF7 breast

COC1C(O)CC(OC2CC(OC3CC(O[C@@H]4C(=O)c5c(cc6cc(OC7CC(OC8CC(O)C(O)C(C)O8)C(O)C(C)O7)c(C)c(O)c6c5O)CC4[C@H](OC)C(=O)C(C)=O)OC(C)C3O)OC(C)C2O)OC1C (stereo partly specified)
GI50 [1]: 12.1 nM | TGI [1]: 31.9 nM | GI50 [2]: 433 nM | TGI [2]: > 33.3 µM | GI50 [3]: 8.77 nM | TGI [3]: 32.1 nM | GI50 [4]: 33.1 nM | TGI [4]: > 33.3 µM | GI50 [5]: < 10.6 nM | TGI [5]: > 33.3 µM | GI50 [6]: 10.9 nM | TGI [6]: > 16 µM | GI50 [7]: 10.6 nM | TGI [7]: 52.8 nM | GI50 [8]: < 20 nM | GI50 [9]: 15.5 nM | TGI [9]: > 32.2 µM | GI50 [10]: 12.3 nM | TGI [10]: 60.7 nM | GI50 [11]: 10.8 nM | TGI [11]: 66.9 nM | GI50 [12]: 49.5 nM | TGI [12]: > 33.3 µM | GI50 [13]: 12 nM | TGI [13]: 79.1 nM | GI50 [14]: 12.5 nM | TGI [14]: 66.1 nM | GI50 [15]: 15.9 nM | TGI [15]: > 33.3 µM | GI50 [16]: 20.4 nM | TGI [16]: 75.8 nM | GI50 [17]: 23.4 nM | TGI [17]: > 33.3 µM | GI50 [18]: 9.76 nM | TGI [18]: 27.4 nM | GI50 [19]: 15.6 nM | TGI [19]: 673 nM | GI50 [20]: 41.5 nM | TGI [20]: > 33.3 µM | GI50 [21]: 24.5 nM | TGI [21]: 10.8 µM | GI50 [22]: 12.2 nM | TGI [22]: 53.5 nM | GI50 [23]: 9.27 nM | TGI [23]: 27.5 nM | GI50 [24]: 11.1 nM | TGI [24]: > 11.3 µM | GI50 [25]: 13.8 nM | TGI [25]: > 33.3 µM | GI50 [26]: 13.1 nM | TGI [26]: 67.3 nM | GI50 [27]: 20.1 nM | TGI [27]: > 33.3 µM | GI50 [28]: 15.9 nM | TGI [28]: > 33.3 µM | GI50 [29]: 101 nM | TGI [29]: > 33.3 µM | GI50 [30]: 13.2 nM | TGI [30]: > 33.3 µM | GI50 [31]: 10 nM | TGI [31]: 33.5 nM | GI50 [32]: 10.6 nM | TGI [32]: 206 nM | GI50 [33]: < 14.2 nM | TGI [33]: > 22.6 µM | GI50 [34]: 12 nM | TGI [34]: > 33.3 µM | GI50 [35]: 11.2 nM | TGI [35]: > 33.3 µM | GI50 [36]: 10.5 nM | TGI [36]: > 33.3 µM | GI50 [37]: 23.3 nM | TGI [37]: 88.4 nM | GI50 [38]: 8.43 nM | TGI [38]: 21.4 nM | GI50 [39]: 8.95 nM | TGI [39]: 26.9 nM | GI50 [40]: 15.9 nM | TGI [40]: 59.4 nM | GI50 [41]: 13.2 nM | GI50 [42]: 15.5 nM | TGI [42]: > 33.3 µM | GI50 [43]: 11 nM | GI50 [44]: 7.19 nM | TGI [44]: 16.7 nM | GI50 [45]: 10.6 nM | TGI [45]: 40.2 nM | GI50 [46]: 8.5 nM | TGI [46]: 22.9 nM | GI50 [47]: 13.7 nM | TGI [47]: 138 nM | GI50 [48]: 25.2 nM | TGI [48]: 103 nM | GI50 [49]: 6.78 nM | TGI [49]: 20 nM | GI50 [50]: 52 nM | TGI [50]: > 33.3 µM | GI50 [51]: 15.8 nM | GI50 [52]: 10.7 nM | TGI [52]: 41.4 nM | GI50 [53]: 14.9 nM | TGI [53]: 34.3 nM | GI50 [54]: 9.1 nM | TGI [54]: 64.5 nM | GI50 [55]: 10.8 nM | TGI [55]: > 33.3 µM
